# Source: patent US7820689B2, “Methods and compositions for preventing or treating cardiovascular disease” (priority 2006, dated 2010)
# Where two headings read alike, the source gives them in different places.
# What was measured:
# [1] = tested on: TNF-α production from the THP-1 cell culture after LPS stimulation; experiment: LPS-induced TNF-α production in PMA-differentiated THP-1 macrophage culture (ELISA); format: cell-based, human; details: for TNF-α production after LPS: 1 h before 100 ng/mL LPS, 24 h; for TNFα in medium: LPS 100 ng/mL, LPS alone 8.02±0.42
# Experimental: (§1) THP-1 cells were grown in the RPMI-1640 medium containing 10% fetal bovine serum at 37° C. in 5% CO2. The cells were differentiated to macrophages after treatment of the culture with 100 nM PMA for 24 hours. The cell suspension (5×10^5) was added in 0.5 mL into each well of the tissue culture plates. For each experiment, naloxone was prepared immediately before use. LPS was dissolved in sterile water and stored at −70° C. in aliquots. LDL was isolated from human endotoxin-free heparin plasma and was oxidized using CuSO4. In brief, LDL (1 mL, 1 mg/mL) was dialyzed in 500 mL phosphate-buffered saline (PBS, pH 7.4) overnight. Copper sulfate was added to a final concentration of 5 μM, and the LDL was allowed to oxidize at room temperature for 24 hours.
# The TNF-α level in the supernatant was determined by ELISA.
# (§2) The supernatants were harvested and the TNF-α, IL-6, and MCP-1 levels were determined by ELISA. Superoxide production in the THP-1 cell culture was measured by lucigenin-enhanced chemiluminescence as described previously (Khadour F H, Panas D, Ferdinandy P, et al. Am J Physiol Heart Circ Physiol, 28:H1108-15 2002). LPS-treated THP-1 cells were treated with PBS containing 1.25 mM lucigenin, and counts were obtained for a 10-minute period in a luminometer (Berthold Technologies, Germany) as relative light units (RLU) emitted. Background counts determined in cell-free preparations were subtracted. Superoxide levels were reported as RLU per 10 minutes and were normalized to the volume (mL) of cell suspension added (i.e., RUL/10 min/mL).
# To investigate the DM effect on macrophage activation, determined the effective DM concentrations were first needed. In a pilot experiment, the effective DM concentration that inhibited TNF-α production from macrophages was examined. […] The THP-1 cell culture was pretreated for 1 hour with various concentrations of DM (1-10^−8 μM) prior to treatment with 100 ng/mL LPS for 24 hours. The TNF-α level in the supernatant was determined by ELISA. […] One μM DM could reduce TNF-α production up to 44 percent in the THP-1 cell culture after LPS stimulation (Table 3). Therefore, subsequent experiments were performed with these effective DM concentrations (0.01, 0.1, and 1 μM).
# [2] = tested on: apoE-deficient mice; format: in vivo
# Experimental: (§3) ApoE-deficient mice were fed with a high cholesterol diet containing 21% fat and 0.15% cholesterol (PMI LabDiet 40097, Richmond, Ind., USA) from 8-17 weeks of age. […] After completing the treatment, blood samples were collected by direct heart puncture when sacrificing the animals. The serum levels of total cholesterol, LDL, HDL, and triglyceride were measured by enzymatic methods using an automatic analyzer (Model 747, Hitachi Ltd. Co., Tokyo, Japan). The aorta was dissected from the aortic valve to the iliac bifurcation. To identify lipid-rich atherosclerotic lesions, the aorta was rinsed in 50% isopropanol for 2 minutes, incubated in 0.67% Oil-Red-O for 15 minutes, and washed by 10% isopropanol for 2 minutes. Using a dissection microscope, the area of each atherosclerotic lesion was measured with Image Pro Plus software (Version 3.0.1; Media Cybernetics, Inc, Silver Spring, Md., USA) and expressed as percentage of atherosclerotic area/total area of the aorta.
# [3] = tested on: C57BL/6 mice; experiment: Carotid artery ligation vascular remodeling model, morphometry; format: in vivo; details: for neointima/media (N/M) ratio: 28 days after surgery, controls 1.4±0.6; for lumen area / neointima area: 28 days; for lumen area: PBS 12859±7258; for neointima area: PBS 33623±9377
# Source text: Adult C57BL/6 mice (8-12 weeks) were anesthetized by intraperitoneal injection of sodium pentobarbital. The left common carotid artery was isolated and ligated completely with a 6-0 silk suture near the carotid bifurcation. […] After completing the treatment the animals were sacrificed and the segment of the left common carotid artery just proximal to the ligation was excised, fixed in 4% paraformaldehyde, and embedded in paraffin. Five transverse sections per animal were cut at 100 μm intervals and stained with hematoxylin-eosin. The borders of the internal lumen, internal elastic lamina (IEL), and external elastic lamina (EEL) were traced on a digitizing board using Meta Imaging Series 5.0 software ([…].). The luminal, IEL, and EEL areas were measured. The neointima area was calculated by subtracting the luminal area from the IEL area, and the media area was calculated by subtracting the IEL area from the EEL area. The total vascular area was represented by EEL area. The ratio of neointima to media area (N/M ratio) was calculated. Average values were obtained from morphometric analysis of each section of the animal.
# Data were given as mean±SD. The Mann-Whitney U test was used to compare continuous variables between the two groups. […] All statistical analyses were performed using SPSS 12.0 (SPSS Inc. Chicago, Ill., USA). The statistical significance level was set at P<0.05, two-tailed.
# [4] = Serum lipid levels in apoE-deficient mice on high cholesterol diet; format: in vivo
# Experimental: as §3
# [5] = tested on: microglia; details: cited from earlier work
# [6] = tested on: IL-6 release from THP-1 cells after LPS stimulation; experiment: LPS-induced IL-6 release in THP-1 macrophage culture (ELISA); format: cell-based, human
# Experimental: as §1, §2
# [7] = tested on: THP-1 cells; experiment: MTT cell viability assay; format: cell-based, human; details: with or without LPS
# Experimental: Cell viability was determined with the 3 (4,5-dimethylthiazol-2-yl) 2,5-diphenyltetrazolium bromide (MTT) assay in each treatment group described above. Briefly, fresh medium was added to cells together with 10% MTT (5 mg/mL). Each plate was maintained at 37° C. for 2 hours and subsequently formazan crystals were dissolved in DMSO. Absorbance was read at a wavelength of 550 nm using a SPECTRAmax PLUS^384 spectrophotometer (Molecular Devices, CA, USA).
smiles,measurement,setting,value
"COc1ccc2c(c1)[C@]13CCCC[C@@H]1[C@H](C2)N(C)CC3 [DM, (+)-3-methoxy-17-methyl-9α,13α,14α-morphinan]",TNF-α in medium,"[1]; DM 0.01 μM pretreatment, LPS, LPS alone 8.85±0.81",6.93 ± 0.76 ng/mL
same,TNF-α production after LPS,[1]; DM pretreatment 1 μM,56 ± 10 % control
same,TNF-α production after LPS,[1]; DM pretreatment 10^−2 μM,74 ± 4 % control
same,TNF-α production after LPS,[1]; DM pretreatment 10^−6 μM,83 ± 3 % control
same,reduction of TNF-α production,"[1]; One μM DM, THP-1 cell culture after LPS stimulation",up to 44%
same,most effective DM concentrations that suppressed macrophage TNF-α production,"[1]; THP-1, after LPS stimulation",0.01 to 1 µM
same,aortic atherosclerotic lesion area,"[2]; DM 5 mg/kg/day 10 weeks, P=NS, controls 16.9±4.3",14.1±5.7%
same,aortic atherosclerotic lesion area,"[2]; DM 10 mg/kg/day 10 weeks, controls 16.9±4.3",8.2±3.8%
same,aortic atherosclerotic lesion area,"[2]; DM 20 mg/kg/day 10 weeks, controls 16.9±4.3",5.0±2.0%
same,aortic atherosclerotic lesion area,"[2]; DM 40 mg/kg/day 10 weeks, controls 16.9±4.3",4.6±3.6%
same,neointima/media (N/M) ratio,"[3]; DM 5 mg/kg/day 4 weeks, P=NS",1.1±0.7
same,neointima/media (N/M) ratio,[3]; DM 10 mg/kg/day 4 weeks,0.7±0.3
same,neointima/media (N/M) ratio,[3]; DM 20 mg/kg/day 4 weeks,0.4±0.2
same,neointima/media (N/M) ratio,[3]; DM 40 mg/kg/day 4 weeks,0.5±0.2
same,"total cholesterol, triglyceride, LDL, and HDL levels",[4]; DM treatment for 10 weeks vs controls,no significant differences
same,microglia activation,"[5]; 1 μM DM, Liu et al. 2003",could inhibit microglia activation
same,IL-6 in medium,"[6]; DM 0.01 μM pretreatment, LPS alone 9.53±1.95",6.22 ± 2.46 ng/mL
same,IL-6 in medium,"[6]; DM 0.1 μM pretreatment, LPS alone 9.53±1.95",6.21 ± 1.89 ng/mL
same,IL-6 in medium,"[6]; DM 1 μM pretreatment, LPS alone 9.53±1.95",5.36 ± 1.76 ng/mL
same,cell viability (MTT),"[7]; 0.01, 0.1, or 1 μM DM",no significant changes of the cell viability
"C=CCN1CC[C@]23c4c5ccc(O)c4O[C@H]2C(=O)CC[C@@]3(O)[C@H]1C5 [Naloxone, 17-allyl-4,5α-epoxy-3,14-dihydroxymorphinan-6-one]",TNFα in medium,[1]; 0.1 μM pretreatment,4.10 ± 0.37 ng/mL
same,TNFα in medium,[1]; 1 μM pretreatment,4.41 ± 0.36 ng/mL
same,reduction of TNFα production,"[1]; 0.01-1 μM, THP1 cell culture after LPS stimulation",50%
same,aortic atherosclerotic lesion area,"[2]; 10 mg/kg/day i.p. 10 weeks, PBS 12.9±6.1",5.2±3.8%
same,aortic atherosclerotic lesion area,"[2]; 20 mg/kg/day i.p. 10 weeks, PBS 12.9±6.1",3.4±1.4%
same,aortic atherosclerotic lesion area,"[2]; 25 mg/kg/day i.p. 10 weeks, PBS 12.9±6.1",1.8±1.2%
same,lumen area,[3]; 10 mg/kg/day,24475±5261 μm^2
same,neointima area,[3]; 10 mg/kg/day,20052±4372 μm^2
same,lumen area,[3]; 20 mg/kg/day,26452±9024 μm^2
same,neointima area,[3]; 20 mg/kg/day,14233±4040 μm^2
same,lumen area,[3]; 25 mg/kg/day,29650±5643 μm^2
same,neointima area,[3]; 25 mg/kg/day,13865±3494 μm^2
same,Media area regression coefficient (naloxone),[3]; Naloxone 10 mg/kg/day,2950
same,Neointima area regression coefficient (naloxone),[3]; Naloxone 10 mg/kg/day,−13951
same,Total area regression coefficient (naloxone),[3]; Naloxone 10 mg/kg/day,−11000
same,Lumen area regression coefficient (naloxone),"[3]; Naloxone 10 mg/kg/day, Area = B1 + B2 (Naloxone) + B3 (Distance (mm))",12016
same,Lumen area regression coefficient (naloxone),[3]; Naloxone 20 mg/kg/day,14033
same,Media area regression coefficient (naloxone),[3]; Naloxone 20 mg/kg/day,10001
same,Neointima area regression coefficient (naloxone),[3]; Naloxone 20 mg/kg/day,−19584
same,Total area regression coefficient (naloxone),[3]; Naloxone 20 mg/kg/day,−9582
same,Lumen area regression coefficient (naloxone),[3]; Naloxone 25 mg/kg/day,16993
same,Media area regression coefficient (naloxone),[3]; Naloxone 25 mg/kg/day,8112
same,Neointima area regression coefficient (naloxone),[3]; Naloxone 25 mg/kg/day,−20380
same,Total area regression coefficient (naloxone),[3]; Naloxone 25 mg/kg/day,−12267
same,influence of naloxone treatment in regression model of carotid remodeling,"[3]; multiple regression, independent of the distance to ligation","had a statistically significant influence on the lumen, neointima, and total vascular areas"
same,"total cholesterol, triglyceride, LDL, and HDL levels","[4]; naloxone 10, 20, 25 mg/kg/day i.p. 10 weeks vs PBS",no significant differences
same,neuron protection / microglia activation,"[5]; 1 μM naloxone, Liu et al. 2000",could protect neurons through inhibition of microglia activation
same,IL-6 in medium,"[6]; 0.01 μM pretreatment, LPS alone 5.02±0.14",3.74 ± 0.31 ng/mL
same,IL-6 in medium,"[6]; 0.1 μM pretreatment, LPS alone 5.02±0.14",3.28 ± 0.14 ng/mL
same,IL-6 in medium,"[6]; 1 μM pretreatment, LPS alone 5.02±0.14",3.44 ± 0.48 ng/mL
same,cell viability (MTT),"[7]; 0.01, 0.1, or 1 μM naloxone",no significant changes of the cell viability
